According to US20250129031A1, “1,2,3-TRIAZOLE CARBONYL SULFONYLAMIDE COMPOUNDS AND USE THEREOF” (PI INDUSTRIES LTD., priority 2022, published 2025):

system: Meloidogyne incognita; test: Meloidogyne incognita test: gall rating on cucumber plants in pots after soil application; assay type: in vivo; set-up: key: 0: no galls; 1: very few small galls; 2: numerous small galls; 3: numerous small galls of which some are grown together; 4: numerous small and some big galls; 25% of roots severely galled; 6: 50% of roots severely galled; 75% of roots severely galled; 8: no healthy roots but plant is still green; 9: roots rotting and plant dying; 10: plant and roots dead; conditions: 1000 ppm applied to soil inoculated with 5000 eggs & J2s; cucumber seedlings; rated 30 days after application; 0-10 scale (Zeck 1971); untreated check up to 8
Protocol: Meloidogyne incognita Test:
The trial pots were filled with soil containing a mixture of sand:soil:cocopeat in a ratio of 1:1:1. To the soil of each pot 5 mL of a nematode suspension (Meloidogyne incognita, mix of 5000 eggs & J2s) was added. One hour later the respective test compound at the stated concentration was applied to each pot. 10 days old cucumber seedlings were transplanted into the pots one day after the application. The cucumber plants were allowed to grow at a temperature of 27° C. under greenhouse conditions. The evaluation of the gall rating was recorded 30 days after the application. The plants were carefully uprooted and the roots were thoroughly washed. The gall rating was done on a 0-10 scale as described by Zeck (1971) and shown below: • 0=no galls • 1=very few small galls • 2=numerous small galls • 3=numerous small galls of which some are grown together • 4=numerous small and some big galls • 5=25% of roots severely galled • 6=50% of roots severely galled • 7=75% of roots severely galled • 8=no healthy roots but plant is still green • 9=roots rotting and plant dying • 10=plant and roots dead

SMILES	gall rating scale
O=C(NS(=O)(=O)c1cc(Cl)ccc1Cl)c1cn(-c2cc(Cl)cc(Cl)c2)nn1 [Compound 2, 1-(3,5-dichlorophenyl)-N-((2,5-dichlorophenyl)sulfonyl)-1H-1,2,3-triazole-4-carboxamide]	4
Cc1c(C(=O)NS(=O)(=O)c2ccccc2Cl)nnn1-c1cc(Cl)cc(Cl)c1 [Compound 7, N-((2-chlorophenyl)sulfonyl)-1-(3,5-dichlorophenyl)-5-methyl-1H-1,2,3-triazole-4-carboxamide]	4
Cc1c(C(=O)NS(=O)(=O)c2cc(Cl)ccc2Cl)nnn1-c1cc(Cl)cc(Cl)c1 [Compound 8, 1-(3,5-dichlorophenyl)-N-((2,5-dichlorophenyl)sulfonyl)-5-methyl-1H-1,2,3-triazole-4-carboxamide]	4
Cc1c(C(=O)NS(=O)(=O)c2ccccc2OC(F)(F)F)nnn1-c1cc(Cl)cc(Cl)c1 [Compound 17]	4
Cc1c(C(=O)NS(=O)(=O)c2ccc(F)cc2)nnn1-c1cc(Cl)cc(Cl)c1 [Compound 25]	4
Cc1c(C(=O)NS(=O)(=O)c2cc(C(F)(F)F)ccc2Cl)nnn1-c1ccc(Cl)cc1Cl [Compound 33]	4
O=C(NS(=O)(=O)c1ccccc1)c1nnn(-c2cc(Cl)cc(Cl)c2)c1C(F)(F)F [Compound 35, 1-(3,5-dichlorophenyl)-N-(phenylsulfonyl)-5-(trifluoromethyl)-1H-1,2,3-triazole-4-carboxamide]	4
O=C(NS(=O)(=O)c1c(F)cccc1F)c1nnn(-c2ccc(Cl)cc2C(F)(F)F)c1C(F)(F)F [Compound 52]	4
COc1ccc(Cl)c(S(=O)(=O)NC(=O)c2nnn(-c3ccc(Cl)cc3Cl)c2C)c1 [Compound 56]	4
COc1ccc(Cl)c(S(=O)(=O)NC(=O)c2nnn(-c3ccc(Cl)cc3C(F)(F)F)c2C(F)(F)F)c1 [Compound 57]	4
COc1ccc(Cl)c(S(=O)(=O)NC(=O)c2nnn(-c3ccc(Cl)cc3C(F)(F)F)c2C)c1 [Compound 61]	4
O=C(NS(=O)(=O)c1cc(C(F)(F)F)ccc1Cl)c1nnn(-c2ccc(C(F)(F)F)cc2Cl)c1C(F)(F)F [Compound 76]	4
Cc1c(C(=O)NS(=O)(=O)c2ccccc2F)nnn1-c1cc(Cl)cc(C(F)(F)F)c1 [Compound 96]	4
Cc1c(C(=O)NS(=O)(=O)c2c(F)cc(F)cc2F)nnn1-c1cc(Cl)cc(C(F)(F)F)c1 [Compound 97]	4
COc1ccc(Cl)c(S(=O)(=O)NC(=O)c2nnn(-c3cc(C(F)(F)F)cc(C(F)(F)F)c3)c2C)c1 [Compound 108]	4
Cc1c(C(=O)NS(=O)(=O)c2ccccc2C(F)(F)F)nnn1-c1ccc(OC(F)(F)F)cc1Cl [Compound 132]	4
COc1ccc(Cl)c(S(=O)(=O)NC(=O)c2nnn(-c3ccc(OC(F)(F)F)cc3Cl)c2C)c1 [Compound 133]	4
Cc1c(C(=O)NS(=O)(=O)c2cc(Cl)ccc2Cl)nnn1-c1ccc(OC(F)(F)F)cc1Cl [Compound 134, 1-(2-chloro-4-(trifluoromethoxy)phenyl)-N-((2,5-dichlorophenyl)sulfonyl)-5-methyl-1H-1,2,3-triazole-4-carboxamide]	4
Cc1c(C(=O)NS(=O)(=O)c2cc(C(F)(F)F)ccc2Cl)nnn1-c1ccc(OC(F)(F)F)cc1Cl [Compound 135]	4
Cc1c(C(=O)NS(=O)(=O)c2cc(F)cc(F)c2)nnn1-c1ccc(OC(F)(F)F)cc1Cl [Compound 140]	4
Cc1c(C(=O)NS(=O)(=O)c2ccccc2F)nnn1-c1ccc(OC(F)(F)F)cc1Cl [Compound 143]	4
Cc1c(C(=O)NS(=O)(=O)c2cc(Cl)ccc2F)nnn1-c1ccc(OC(F)(F)F)cc1Cl [Compound 168, N-((5-chloro-2-fluorophenyl)sulfonyl)-1-(2-chloro-4-(trifluoromethoxy)phenyl)-5-methyl-1H-1,2,3-triazole-4-carboxamide]	4
O=C(NS(=O)(=O)c1cc(C(F)(F)F)ccc1Cl)c1nnn(-c2ccc(OC(F)(F)F)cc2Cl)c1C(F)(F)F [Compound 171, 1-(2-chloro-4-(trifluoromethoxy)phenyl)-N-((2-chloro-5-(trifluoromethyl)phenyl)sulfonyl)-5-(trifluoromethyl)-1H-1,2,3-triazole-4-carboxamide]	4
O=C(NS(=O)(=O)c1ccccc1C(F)(F)F)c1nnn(-c2ccc(Cl)cc2Cl)c1C(F)(F)F [Compound 209]	4
O=C(NS(=O)(=O)c1cc(C(F)(F)F)ccc1Cl)c1nnn(-c2ccc(Cl)cc2Cl)c1C(F)(F)F [Compound 210]	4

SMILES	gall rating scale
Cc1ccc(C)c(S(=O)(=O)NC(=O)c2nnn(-c3ccc(OC(F)(F)F)cc3Cl)c2C)c1 [Compound 217]	4
O=C(NS(=O)(=O)c1ccc(F)cc1F)c1nnn(-c2ccc(Cl)cc2Cl)c1C(F)(F)F [Compound 218]	4
O=C(NS(=O)(=O)c1cc(C(F)(F)F)ccc1Cl)c1nnn(-c2ccc(OC(F)(F)F)cc2Cl)c1C1CC1 [Compound 227, 1-(2-chloro-4-(trifluoromethoxy)phenyl)-N-((2-chloro-5-(trifluoromethyl)phenyl)sulfonyl)-5-cyclopropyl-1H-1,2,3-triazole-4-carboxamide]	4
O=C(NS(=O)(=O)c1ccccc1C(F)(F)F)c1nnn(-c2ccc(OC(F)(F)F)cc2Cl)c1C1CC1 [Compound 228]	4
O=C(NS(=O)(=O)c1cc(Cl)ccc1Cl)c1nnn(-c2ccc(OC(F)(F)F)cc2Cl)c1C1CC1 [Compound 229, 1-(2-chloro-4-(trifluoromethoxy)phenyl)-5-cyclopropyl-N-((2,5-dichlorophenyl)sulfonyl)-1H-1,2,3-triazole-4-carboxamide]	4
COc1ccc(Cl)c(S(=O)(=O)NC(=O)c2nnn(-c3ccc(OC(F)(F)F)cc3Cl)c2C2CC2)c1 [Compound 230, 1-(2-chloro-4-(trifluoromethoxy)phenyl)-N-((2-chloro-5-methoxyphenyl)sulfonyl)-5-cyclopropyl-1H-1,2,3-triazole-4-carboxamide]	4
CCc1c(C(=O)NS(=O)(=O)c2cc(C(F)(F)F)ccc2Cl)nnn1-c1ccc(Cl)cc1Cl [Compound 231]	4
Cc1c(C(=O)NS(=O)(=O)c2cc(C(F)(F)F)ccc2F)nnn1-c1ccc(Cl)cc1Cl [Compound 240]	4
Cc1c(C(=O)NS(=O)(=O)c2ccccc2C(F)(F)F)nnn1-c1ccc(Cl)cc1Cl [Compound 241]	4
COc1ccc(Cl)c(S(=O)(=O)NC(=O)c2nnn(-c3ccc(F)cc3Cl)c2C)c1 [Compound 242]	4
Cc1c(C(=O)NS(=O)(=O)c2ccccc2C(F)(F)F)nnn1-c1ccc(F)cc1Cl [Compound 245]	4
Cc1c(C(=O)NS(=O)(=O)c2ccccc2F)nnn1-c1ccc(F)cc1Cl [Compound 246]	4
Cc1c(C(=O)NS(=O)(=O)c2cc(Cl)c(F)cc2F)nnn1-c1ccc(F)cc1Cl [Compound 250]	4
Cc1c(C(=O)NS(=O)(=O)c2cc(C(F)(F)F)ccc2Cl)nnn1-c1ccc(F)cc1Cl [Compound 252, 1-(2-chloro-4-fluorophenyl)-N-((2-chloro-5-(trifluoromethyl)phenyl)sulfonyl)-5-methyl-1H-1,2,3-triazole-4-carboxamide]	4
Cc1c(C(=O)NS(=O)(=O)c2cc(C(F)(F)F)ccc2Cl)nnn1-c1cc(Cl)cc(Cl)c1 [Compound 253]	4
Cc1c(C(=O)NS(=O)(=O)c2ccccc2C(F)(F)F)nnn1-c1cc(Cl)cc(Cl)c1 [Compound 254]	4
Cc1c(C(=O)NS(=O)(=O)c2ccccc2C(F)(F)F)nnn1-c1cc(Cl)ccc1Cl [Compound 259, 1-(2,5-dichlorophenyl)-5-methyl-N-((2-(trifluoromethyl)phenyl)sulfonyl)-1H-1,2,3-triazole-4-carboxamide]	4
COc1ccc(Cl)c(S(=O)(=O)NC(=O)c2nnn(-c3ccc(C#N)cc3Cl)c2C)c1 [Compound 260]	4
Cc1c(C(=O)NS(=O)(=O)c2cc(C(F)(F)F)ccc2Br)nnn1-c1ccc(Cl)cc1Cl [Compound 261]	4
Cc1c(C(=O)NS(=O)(=O)c2cc(F)ccc2F)nnn1-c1ccc(C#N)cc1Cl [Compound 269]	4
Cc1c(C(=O)NS(=O)(=O)c2ccccc2C(F)(F)F)nnn1-c1ccc(C#N)cc1Cl [Compound 271]	4
Cc1c(C(=O)NS(=O)(=O)c2ccccc2Cl)nnn1-c1ccc(C#N)cc1Cl [Compound 272]	4
Cc1c(C(=O)NS(=O)(=O)c2ccccc2F)nnn1-c1ccc(Cl)cc1Cl [Compound 278, 1-(2,4-dichlorophenyl)-N-((2-fluorophenyl)sulfonyl)-5-methyl-1H-1,2,3-triazole-4-carboxamide]	4
Cc1c(C(=O)NS(=O)(=O)c2ccc(F)cc2F)nnn1-c1ccc(Cl)cc1Cl [Compound 279, 1-(2,4-dichlorophenyl)-N-((2,4-difluorophenyl)sulfonyl)-5-methyl-1H-1,2,3-triazole-4-carboxamide]	4
